{"source": "patent US20250230193A1", "about": "“CYCLIC COMPOUND HAVING SELECTIVE KRAS INHIBITORY EFFECT ON HRAS AND NRAS” (CHUGAI SEIYAKU KABUSHIKI KAISHA, priority 2022, published 2025)", "key": {"[1]": {"target": "GDP-bound HRAS wild-type protein (Homo sapiens, UniProt P01112)", "sequence (P01112 whole entry)": "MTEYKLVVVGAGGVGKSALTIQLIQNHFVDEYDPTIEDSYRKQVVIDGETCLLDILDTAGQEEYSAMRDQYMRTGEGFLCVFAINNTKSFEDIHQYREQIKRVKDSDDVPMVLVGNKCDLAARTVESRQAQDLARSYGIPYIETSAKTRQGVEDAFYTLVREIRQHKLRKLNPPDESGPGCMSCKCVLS", "experiment": "Binding to HRAS by surface plasmon resonance (SPR), Single Cycle Kinetics"}, "[2]": {"target": "GDP-bound NRAS wild-type protein (Homo sapiens, UniProt P01111)", "sequence (P01111 whole entry)": "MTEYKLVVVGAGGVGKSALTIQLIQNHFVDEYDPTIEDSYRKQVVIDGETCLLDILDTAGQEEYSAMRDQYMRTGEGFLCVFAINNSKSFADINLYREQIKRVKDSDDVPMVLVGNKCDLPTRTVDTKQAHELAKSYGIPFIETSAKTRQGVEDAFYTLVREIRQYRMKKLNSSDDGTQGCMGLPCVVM", "experiment": "Binding to NRAS by surface plasmon resonance (SPR), Single Cycle Kinetics"}, "[3]": {"conditions": "GDP-bound HRAS wild-type vs GDP-bound KRAS wild-type, SPR"}, "[4]": {"conditions": "GDP-bound NRAS wild-type vs GDP-bound KRAS wild-type, SPR"}}, "note": "Where a SMILES comes first, the peptide text is derived from it. Bridges are numbered along the chain shown (N, C = ends). [ ]: non-standard residue; d: D form. The star is where a group is joined. hPhe(3-Cl-4-CF3) = N[C@@H](CCc1ccc(C(F)(F)F)c(Cl)c1)C(=O)O; NPrPhe(4-CF3) = CCCN[C@@H](Cc1ccc(C(F)(F)F)cc1)C(=O)O; NMeGly(cPent) = CN[C@H](C(=O)O)C1CCCC1; Hyp = O=C(O)[C@@H]1C[C@@H](O)CN1; NMeD = CN[C@@H](CC(=O)O)C(=O)O; NMeL = CN[C@@H](CC(C)C)C(=O)O; Morpholide = C1CN(*)CCO1; Ac4c = NC1(C(=O)O)CCC1; Sar = CNCC(=O)O", "data": [{"compound": "CC[C@H](C)[C@@H]1NC(=O)[C@H](CC(C)C)N(C)C(=O)C[C@@H](C(=O)N(C)C)N(C)C(=O)[C@H](C2CCCC2)N(C)C(=O)C2(CCC2)N(C)C(=O)[C@@H]2CCCN2C(=O)[C@H](CCc2cc(F)c(C(F)(F)F)c(F)c2)NC(=O)CN(C)C(=O)[C@H](Cc2ccc(C)cc2)N2CC/C=C\\C[C@@H](C2=O)N(C)C(=O)CN(C)C1=O", "note": "[PP1791]", "values": [{"measurement": "HRAS/KRAS (ratio of KD value for HRAS to KD value for KRAS)", "setting": "[1]; [3]", "result": "A (a compound having 10 or more and less than 20 is denoted as A)"}, {"measurement": "NRAS/KRAS (ratio of KD value for NRAS to KD value for KRAS)", "setting": "[2]; [4]", "result": "A (a compound having 10 or more and less than 20 is denoted as A)"}]}, {"compound": "CCCN1C(=O)CN(C)C(=O)CN(C)C(=O)[C@H]([C@@H](C)CC)NC(=O)[C@H](CC(C)C)N(C)C(=O)C[C@@H](C(=O)N2CCOCC2)N(C)C(=O)[C@H](C2CCCC2)N(C)C(=O)[C@@H](C)NC(=O)[C@@H]2CCCN2C(=O)[C@H](CCc2ccc(C(F)(F)F)c(Cl)c2)NC(=O)CN(C)C(=O)[C@@H]1Cc1ccc(C(F)(F)F)cc1", "note": "[PP0150] ([NMeL]I[Sar][Sar][NPrPhe(4-CF3)][Sar][hPhe(3-Cl-4-CF3)]P[dA][NMeGly(cPent)][NMeD]-Morpholide; lactam N-11)", "values": [{"measurement": "HRAS/KRAS (ratio of KD for GDP-bound HRAS wild-type to KD for KRAS)", "setting": "[1]; KD ratio HRAS/KRAS, SPR", "result": "C (A compound having a KD ratio of 0.1 or more and less than 3 is denoted as C)"}, {"measurement": "NRAS/KRAS (ratio of KD for GDP-bound NRAS wild-type to KD for KRAS)", "setting": "[2]; KD ratio NRAS/KRAS, SPR", "result": "B (a compound having 3 or more and less than 10 is denoted as B)"}]}, {"compound": "CCCC[C@H]1C(=O)N[C@@H]([C@@H](C)CC)C(=O)N(C)CC(=O)N(C)[C@H]2C/C=C\\CCN(C2=O)[C@@H](Cc2ccc(C(F)(F)F)cc2)C(=O)N(C)CC(=O)N[C@@H](CCc2cc(F)c(C(F)(F)F)c(F)c2)C(=O)N2C[C@H](OCC)C[C@H]2C(=O)NC2(CCC2)C(=O)N(C)[C@@H](C2CCCC2)C(=O)N(C)[C@H](C(=O)N(C)CCC)CC(=O)N1C", "note": "[PP1704]", "values": [{"measurement": "HRAS/KRAS (ratio of KD value for HRAS to KD value for KRAS)", "setting": "[1]; [3]", "result": "A (a compound having 10 or more and less than 20 is denoted as A)"}, {"measurement": "NRAS/KRAS (ratio of KD value for NRAS to KD value for KRAS)", "setting": "[2]; [4]", "result": "A (a compound having 10 or more and less than 20 is denoted as A)"}]}, {"compound": "CC[C@H](C)[C@@H]1NC(=O)[C@H](CC2CCC2)N(C)C(=O)C[C@@H](C(=O)N(C)C)N(C)C(=O)[C@H](C2CCCC2)N(C)C(=O)C2(CCC2)N(C)C(=O)[C@@H]2CCCN2C(=O)[C@H](CCc2cc(F)c(C(F)(F)F)c(F)c2)NC(=O)CN(C)C(=O)[C@H](Cc2ccc(C)cc2)N2CC/C=C\\C[C@@H](C2=O)N(C)C(=O)CN(C)C1=O", "note": "[PP1802]", "values": [{"measurement": "HRAS/KRAS (ratio of KD value for HRAS to KD value for KRAS)", "setting": "[1]; [3]", "result": "B (a compound having 3 or more and less than 10 is denoted as B)"}, {"measurement": "NRAS/KRAS (ratio of KD value for NRAS to KD value for KRAS)", "setting": "[2]; [4]", "result": "A (a compound having 10 or more and less than 20 is denoted as A)"}]}, {"compound": "CC[C@H](C)[C@@H]1NC(=O)[C@H](COC)N(C)C(=O)C[C@@H](C(=O)N(C)C)N(C)C(=O)[C@H](C2CCCC2)N(C)C(=O)C2(CC(C)(C)C2)NC(=O)[C@@H]2C[C@@H](OC3CCC3)CN2C(=O)[C@H](CCc2cc(F)c(C(F)(F)F)c(F)c2)NC(=O)CN(C)C(=O)[C@H](CC2CCC(F)(F)CC2)N2CC/C=C\\C[C@@H](C2=O)N(C)C(=O)CN(C2CC2)C1=O", "note": "[PP2622]", "values": [{"measurement": "HRAS/KRAS (ratio of KD value with respect to GDP-bound HRAS wild-type protein to KD value with respect to KRAS)", "setting": "[1]; KD ratio HRAS/KRAS, class symbols", "result": "B (a compound having 3 or more and less than 10 is denoted as B)"}, {"measurement": "NRAS/KRAS (ratio of KD value with respect to GDP-bound NRAS wild-type protein to KD value with respect to KRAS)", "setting": "[2]; KD ratio NRAS/KRAS, class symbols", "result": "A (a compound having 10 or more and less than 20 is denoted as A)"}]}, {"compound": "CCC[C@H]1C(=O)N[C@@H]([C@@H](C)CC)C(=O)N(CCC)CC(=O)N(C)[C@H]2C/C=C\\CCN(C2=O)[C@@H](Cc2ccc(C)cc2)C(=O)N(C)CC(=O)N[C@@H](CCc2cc(F)c(C(F)(F)F)c(F)c2)C(=O)N2C[C@H](OCC)C[C@H]2C(=O)NC2(CC(C)(C)C2)C(=O)N(C)[C@@H](C2CCCC2)C(=O)N(C)[C@H](C(=O)N(C)C)CC(=O)N1C", "note": "[PP2108]", "values": [{"measurement": "HRAS/KRAS (ratio of KD value with respect to HRAS to KD value with respect to KRAS)", "setting": "[1]; SPR, GDP-bound HRAS wild-type vs GDP-bound KRAS wild-type", "result": "A (a compound having 10 or more and less than 20 is denoted as A)"}, {"measurement": "NRAS/KRAS (ratio of KD value with respect to NRAS to KD value with respect to KRAS)", "setting": "[2]; SPR, GDP-bound NRAS wild-type vs GDP-bound KRAS wild-type", "result": "A (a compound having 10 or more and less than 20 is denoted as A)"}]}, {"compound": "CCCN1C(=O)CN(C)C(=O)CN(C)C(=O)[C@H]([C@@H](C)CC)NC(=O)[C@H](CC(C)C)N(C)C(=O)C[C@@H](C(=O)N(C)C)NC(=O)[C@H](C2CCCC2)N(C)C(=O)C2(CCC2)NC(=O)[C@@H]2C[C@@H](OCC)CN2C(=O)[C@H](CCc2ccc(C(F)(F)F)c(Cl)c2)NC(=O)CN(C)C(=O)[C@@H]1Cc1ccc(C(F)(F)F)cc1", "note": "[PP0360] ([NMeL]I[Sar][Sar][NPrPhe(4-CF3)][Sar][hPhe(3-Cl-4-CF3)][Hyp](Et)[Ac4c][NMeGly(cPent)]D-NMe2; lactam N-11)", "values": [{"measurement": "HRAS/KRAS (ratio of KD for GDP-bound HRAS wild-type to KD for KRAS)", "setting": "[1]; KD ratio HRAS/KRAS, SPR", "result": "C (A compound having a KD ratio of 0.1 or more and less than 3 is denoted as C)"}, {"measurement": "NRAS/KRAS (ratio of KD for GDP-bound NRAS wild-type to KD for KRAS)", "setting": "[2]; KD ratio NRAS/KRAS, SPR", "result": "B (a compound having 3 or more and less than 10 is denoted as B)"}]}]}
